Assay results reported in patent US20170143647A1, “INTESTINAL FLORA IMPROVING COMPOSITION CONTAINING ASTAXANTHIN AND ITS USE” (THE DOSHISHA, priority 2013, published 2017).
“Also recorded” adds a separate entry of the source.

Experiments:
[1] = tested on: bacteria that belong to the genus Bacteroides; assay: Real-time PCR of fecal DNA, genus Bacteroides; assay type: in vivo, ICR mice; settings: group HA (high-fat diet + astaxanthin), Day 14, FIG. 9
Method: (§1) A change in intestinal flora when a high-fat diet was fed to mice, and the effect of astaxanthin on intestinal flora were determined using a real-time PCR method.
(§2) The test substance (astaxanthin) was added to an ordinary diet (“Labo MR Stock” manufactured by Nosan Corporation (Nishi-ku, Yokohama)) and a high-fat diet (“HFD-60” Oriental Yeast Co., Ltd. (Itabashi-ku, Tokyo)) so that the content thereof was 0.02%.
(§3) A commercially-available product “AstaReal Oil 50F” (manufactured by Fuji Chemical Industries Co., Ltd.) was used as astaxanthin.
(§4) Twenty 4-week-old ICR mice were respectively kept in different cages, and habituated for 1 week.
(§5) After completion of habituation, the weight of each mouse was measured, and the mice were divided into an ordinary diet group (group C), an ordinary diet+astaxanthin group (group CA), a high-fat diet group (group H), and a high-fat diet+astaxanthin group (group HA) (five mice per group).
(§6) The feces of the mice were collected over 24 hours on the final day of habituation (Day 0). […]
(§7) The DNA solution was 100-fold diluted (Lactobacillus, Streptococcus, Clostridium coccoides, and Clostridium leptum), and the final concentration was adjusted to […] (other targets). […] The primer sequence was analyzed using the method of Matsuki et al. or Endo et al. […]
(§8) The mean value of each group was analyzed by Tukey's multiple comparison test. […]

[2] = Change in body weight of mice fed ordinary or high-fat diet with or without astaxanthin; assay type: in vivo, ICR mice; settings: 0.02% astaxanthin in ordinary or high-fat diet, weight measured once a week
Method: as §2, §3, §4, §5
The diet was fed to each group from Day 1, and the weight of each mouse was measured once a week.
The ordinary diet was fed once a week, and the high-fat diet was fed every other day (the high-fat diet was returned to room temperature on the day before the feeding).
The mean value of each group was analyzed by Tukey's multiple comparison test.

intestinal flora = assay: Effect of astaxanthin on intestinal flora of mice fed a high-fat diet (overall); assay type: in vivo; settings: intake of astaxanthin, high-fat diet fed to a mouse
Method: A change in intestinal flora when a high-fat diet was fed to mice, and the effect of astaxanthin on intestinal flora were determined using a real-time PCR method. The test substance (astaxanthin) was added to an ordinary diet (“Labo MR Stock” manufactured by Nosan Corporation (Nishi-ku, Yokohama)) and a high-fat diet (“HFD-60” Oriental Yeast Co., Ltd. (Itabashi-ku, Tokyo)) so that the content thereof was 0.02%. A commercially-available product “[…] Oil […]” (manufactured by Fuji Chemical Industries Co., Ltd.) was used as astaxanthin. Twenty 4-week-old ICR mice were respectively kept in different cages, and habituated for 1 week. After completion of habituation, the weight of each mouse was measured, and the mice were divided into an ordinary diet group (group C), an ordinary diet+astaxanthin group (group CA), a high-fat diet group (group H), and a high-fat diet+astaxanthin group (group HA) (five mice per group). The DNA solution was 100-fold diluted (Lactobacillus, Streptococcus, Clostridium coccoides, and Clostridium leptum), and the final concentration was adjusted to […] (other targets). […] The primer sequence was analyzed using the method of Matsuki et al. or Endo et al. The real-time PCR assay was performed on Bacteroides, Bifidobacterium (bifidobacteria), Prevotella, Lactobacillus, Streptococcus, Clostridium coccoides, and Clostridium leptum.

[3] = taken orally; cited from earlier work
[4] = eight-week treatment; cited from earlier work
[5] = tested on: Lactobacillus group (lactic acid bacteria); assay: Real-time PCR of fecal DNA, Lactobacillus group; assay type: in vivo, ICR mice
Method: as §1, §2, §3, §4
(§9) After completion of habituation, the weight of each mouse was measured, and the mice were divided into an ordinary diet group (group C), an ordinary diet+astaxanthin group (group CA), a high-fat diet group (group H), and a high-fat diet+astaxanthin group (group HA) (five mice per group). […]
as §7
(§10) Regarding a comparison as to the presence or absence of astaxanthin, the bacterial count change ratio was analyzed by Mann-Whitney's U test (one-sided test).

Clostridium leptum group = assay: Real-time PCR of fecal DNA, Clostridium leptum group; assay type: in vivo, ICR mice; settings: group HA vs group H
Method: as §1, §2, §3, §4, §5, §6, §7, §8

[6] = tested on: Clostridium coccoides group; assay: Real-time PCR of fecal DNA, Clostridium coccoides group; assay type: in vivo, ICR mice
Method: as §1, §2, §3, §4, §9, §7, §10

[7] = tested on: Streptococcus group (lactic acid bacteria); assay: Real-time PCR of fecal DNA, Streptococcus group; assay type: in vivo, ICR mice
Method: as §1, §2, §3, §4, §9, §7, §10

CC1=C(/C=C/C(C)=C/C=C/C(C)=C/C=C/C=C(C)/C=C/C=C(C)/C=C/C2=C(C)C(=O)C(O)CC2(C)C)C(C)(C)CC(O)C1=O (stereo not drawn) [astaxanthin, 3,3′-dihydroxy-β,β-carotene-4,4′-dione]
bacterial count of bacteria that belong to the genus Bacteroides [1]: did not show such a temporary increase; also recorded: suppressed a temporary increase; also recorded: did not show a significant increase
change in body weight, groups fed astaxanthin (CA, HA) vs groups not fed astaxanthin (C, H) [2]: No significant difference
effect on intestinal flora (intestinal flora): improves intestinal flora; also recorded: controls the disorder of intestinal flora
astaxanthin absorbed in the small intestine [3]: about 5%
efficacy reported in Non-Patent Literature 1 [4]: enhances the antioxidant potential, decreases blood pressure, and improves constipation and a climacteric complaint
rate of increase in the bacterial count of the Lactobacillus group ([5]; addition of 0.02% astaxanthin to diet, p=0.031): increased
bacterial count of the Lactobacillus group ([5]; group C vs CA and group H vs HA, FIG. 4): increased
bacterial count of the Clostridium leptum group (Clostridium leptum group; Day 14, p<0.001): temporary increase
bacterial count of the Clostridium leptum group (Clostridium leptum group; Day 28): no significant difference
growth of the Clostridium coccoides group ([6]; group H vs HA, Day 14 and Day 28, FIG. 7): suppressed the growth
rate of increase in the bacterial count of the Clostridium coccoides group ([6]; high-fat diet, addition of astaxanthin, p=0.029): decreased
rate of increase in bacterial count of the Streptococcus group, between the high-fat diet groups ([7]; group H vs HA, p=0.044): significant difference
bacterial count of the Streptococcus group ([7]; group HA (high-fat diet + astaxanthin), Day 28): comparable to those of the ordinary diet group; also recorded: increased
